Measurements published in article PMC8318231, “Rate-of-Kill (RoK) assays to triage large compound sets for Chagas disease drug discovery: Application to GSK Chagas Box” (PLoS Neglected Tropical Diseases, 2021).

Key:
[1] = test system: T. cruzi Tulahuen trypomastigotes; experiment: T. cruzi trypomastigote assay (Cell Titer-Glo viability, ATP luminescence); assay type: cell-based, Trypanosoma cruzi; conditions: for Trypomastigotes pIC50 48 hours: 48 hours incubation; for Trypomastigotes pIC50 48 hours / Trypomastigotes pIC50 72 hours: pIC50 = -log10 IC50 in molar units; for Trypomastigotes pIC50 72 hours: 72 hours incubation; for 72 pIC50: 72 h
Outline: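 Tulahuen trypomastigotes from infected LLC-MK2 culture supernatants (days 5–8) plated at 5 × 10^4 per well in DMEM/2% FBS with compound at 5 μM single-shot final or in dose response. Viability by CellTiter-Glo ATP luminescence after 10 min at room temperature, normalised to no-cell (100%) and DMSO (0%) controls.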

TcCYP51 = conditions: formerly reported; cited from earlier work
[2] = test system: T. cruzi intracellular amastigotes in H9c2 cells; experiment: Rate-of-Kill (RoK) high-content imaging assay, amastigotes per cell (AM/CELL) and curve descriptors; assay type: cell-based, Trypanosoma cruzi; parameters: key to ME_24h / ME_48h / ME_72h: % reduction in parasite burden (cidal response); t50pct_MCC50 / t50pct_Cmax: unit not given here; conditions: for ME_24h: 24h; for ME_48h: 48h; for ME_72h: 72h; for tlag_Cmax / t50pct_Cmax / t50%_Cmax: at Cmax; for ME_24h (%): maximum effect at 24 h; for ME_24h (%) / ME_48h (%) / ME_72h (%): RoK assay; for ME_48h (%): maximum effect at 48 h; for ME_72h (%): maximum effect at 72 h; for ME 24h (maximum effect at 24 hours, intracellular amastigotes): maximum percentage of parasite burden reduction reached by any concentration
Outline: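 H9c2 cardiomyocytes infected with T. cruzi trypomastigotes (MOI 8, 18 h), then compounds tested at 5 μM single shot or 11-point 1/3 dilution from 50 μM. DRAQ5-stained nuclei imaged over a time course. Amastigotes per cell normalised to infected cells at 4 h (0%) and non-infected cells (100%).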

Structure (SMILES)	Trypomastigotes pIC50 48 hours [1]	Trypomastigotes pIC50 72 hours [1]	CYP51 pIC50 (TcCYP51)	ME_24h ([2]; figure 5)	ME_48h ([2]; figure 5)	ME_72h ([2]; figure 5)	MCCE ([2]; RoK curve descriptor) [µM]	AM/CELL NORM ([2]; Time 4, sheet figure 4 A)	AM/CELL NORM ([2]; Time 24, sheet figure 4 A)	AM/CELL NORM ([2]; Time 48, sheet figure 4 A)	tlag_Cmax [2] [h]	t50pct_Cmax ([2]; figure 5)	tlag_Cmax ([2]; figure 5)	t50pct_MCC50 ([2]; at MCC50, figure 5)	tlag_MCC50 ([2]; at MCC50, figure 5)	MCCE ([2]; figure 5)	ME_24h (%) [2] [%]	ME_48h (%) [2] [%]	ME_72h (%) [2] [%]	ME 24h (maximum effect at 24 hours, intracellular amastigotes) [2] [%]	further results
O=C(O)C(F)(F)F.O=c1ccc2ccc(F)c3c2n1C[C@H]3CN1CCC(NCc2cc3ccccc3o2)CC1 [TCMDC-143301]	4.5	4.4	4.5	26.9481	43.1407	49.4796	0.2	0.9981	26.9481	43.1407	4.0	72	4	72	72	0.2058	27.0	43.1	49.5	26.9481	AM/CELL NORM ([2]; Time 72, sheet figure 4 A): 49.4796; MCC50 ([2]; figure 5): 50 µM
CCCn1c(NC(=O)Cc2ccc(Cl)cc2)nc2ccccc21 [TCMDC-143279]	5.9	6	< 4	-55.8269	-85.7556	-269.589	9.3	0.2091	-159.496	-347.093	38.0	72	38	60	48	9.259	-55.8	-85.8	-269.6	3.26	MCC50 ([2]; RoK curve descriptor): 5.6 µM; AM/CELL NORM ([2]; Time 72, sheet figure 4 A): -621.538; t50%_MCC50 ([2]; at MCC50): 48.0 h; tlag_MCC50 ([2]; at MCC50): 24.0 h; MCC50 ([2]; figure 5, in µM): 27.7778
COc1ccc(NS(=O)(=O)c2cc(NC(=O)Cc3ccc(C)cc3)ccc2N2CCOCC2)cc1 [TCMDC-143313]	5.9	6.3	< 4	-207.804	-855.253	-1487.77	0.2				72.0	72	72	72	72	0.2058	-207.8	-855.3	-1487.8	23.7828	AM/CELL NORM ([2]; Time 4, figure 4 A): -12.1404; AM/CELL NORM ([2]; Time 24, figure 4 A): -266.8; AM/CELL NORM ([2]; Time 48, figure 4 A): -1156.6; AM/CELL NORM ([2]; Time 72, figure 4 A): -1899.09; MCC50 ([2]; figure 5): 50 µM
CCN(CC)S(=O)(=O)c1ccc(C(=O)Nc2cc(C)nn2-c2nc(C)c(C)c(=O)[nH]2)cc1 [TCMDC-143273]	6.2	6.3	< 4	-21.3076	17.6407	21.9061	0.6	-1.286	-40.8598	1.208	24.0	72	24	72	38	0.6173	-21.3	17.6	21.9	4.663	MCC50 ([2]; RoK curve descriptor): 1.9 µM; AM/CELL NORM ([2]; Time 72, sheet figure 4 A): 53.2799; t50%_Cmax [2]: 72.0 h; t50%_MCC50 ([2]; at MCC50): 72.0 h; tlag_MCC50 ([2]; at MCC50): 4.0 h; MCC50 ([2]; figure 5, in µM): 25.9259
Cc1c(C(=O)NCCCCn2ccnc2)oc2c(C)cccc12 [TCMDC-143304]	< 4.3	< 4.3	7	-97.6451	-43.6144	81.5916	0.6	-4.678	-97.6451	-43.6144	24.0	72	24	72	48	0.6173	-97.7	-43.6	81.6	-97.6451	72 pIC50 (trypomastigotes, raw data of Fig 1D) ([1]; 72 hours, plotted values, censored values given without sign): < 4.3; 48 pIC50 ([1]; trypomastigote assay, 48 h, figure 1A): < 4.3; 72 pIC50 ([1]; trypomastigote assay, figure 1A): < 4.3; 72 pIC50 ([1]; trypomastigote assay, figure 1B): < 4.3; MCC50 ([2]; RoK curve descriptor): 1.9 µM; AM/CELL NORM ([2]; Time 72, sheet figure 4 A): 60.7007; t50%_Cmax [2]: 72.0 h; t50%_MCC50 ([2]; at MCC50): 72.0 h; tlag_MCC50 ([2]; at MCC50): 48.0 h; MCC50 ([2]; figure 5, in µM): 1.852
COc1cc(NC(=O)Nc2cccc(CNC(=O)OC3CCCCC3)c2)ccc1-c1cnco1 [TCMDC-143376]		4.9	4.6	-229.157	-76.0857	-0.198	0.6				24.0	72	24	72	72	0.6173	-229.2	-76.1	-0.2	42.5513	AM/CELL NORM ([2]; Time 4, figure 4 A): -2.926; AM/CELL NORM ([2]; Time 24, figure 4 A): -229.157; AM/CELL NORM ([2]; Time 48, figure 4 A): -76.0857; AM/CELL NORM ([2]; Time 72, figure 4 A): -16.3246; MCC50 ([2]; figure 5): 50 µM
FC(F)(F)c1cc(C2CCCN(Cc3c[nH]c4ccccc34)C2)nc2ncnn12.O=C(O)C(O)C(O)C(=O)O (stereo not drawn) [TCMDC-143311]	4.9	5.2		20.357	59.0796	83.5796	16.7	-4.224	20.357	59.0796	4.0	48	4	48	4	16.6667	20.4	59.1	83.6	20.357	MCC50 ([2]; RoK curve descriptor): 50.0 µM; AM/CELL NORM ([2]; Time 72, sheet figure 4 A): 83.5796; t50%_Cmax [2]: 48.0 h; t50%_MCC50 ([2]; at MCC50): 48.0 h; tlag_MCC50 ([2]; at MCC50): 4.0 h; MCC50 ([2]; figure 5): 50 µM
